In PMC4128063, “Investigating G protein signalling bias at the glucagon-like peptide-1 receptor in yeast” (British Journal of Pharmacology, 2014):
Where two headings read alike, the source gives them in different places.

Key:
Type in all cases: cell-based
[1] = target: GLP-1 receptor (GPA1/Gαs chimera) (Homo sapiens, UniProt P43220); assay: Yeast growth assay, GPA1/Gαs chimera strain expressing the GLP-1 receptor
[2] = target: GLP-1 receptor (GPA1/Gαi chimera) (Homo sapiens, UniProt P43220); assay: Yeast growth assay, GPA1/Gαi chimera strain expressing the GLP-1 receptor
Chain of GLP-1 receptor (GPA1/Gαi chimera) (P43220 24-463, change not shown): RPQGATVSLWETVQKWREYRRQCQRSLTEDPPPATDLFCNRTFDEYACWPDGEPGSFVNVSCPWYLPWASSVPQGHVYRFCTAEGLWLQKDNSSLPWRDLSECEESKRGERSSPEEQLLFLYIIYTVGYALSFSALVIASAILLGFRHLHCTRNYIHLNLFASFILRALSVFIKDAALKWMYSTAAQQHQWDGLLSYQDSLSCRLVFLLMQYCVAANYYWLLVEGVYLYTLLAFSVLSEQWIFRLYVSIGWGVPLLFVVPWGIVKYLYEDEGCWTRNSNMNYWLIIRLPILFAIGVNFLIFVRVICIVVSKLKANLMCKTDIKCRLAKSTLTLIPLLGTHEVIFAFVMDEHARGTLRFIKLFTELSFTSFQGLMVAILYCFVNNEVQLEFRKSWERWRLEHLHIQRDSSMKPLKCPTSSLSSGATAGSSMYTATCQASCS

GLP-1 receptor = GLP-1 receptor (Homo sapiens, UniProt P43220); assay: G protein signalling bias, GPA1/Gαs versus GPA1/Gαi, yeast assays; conditions: normalized responses at equivalent ligand concentrations
Chain of GLP-1 receptor (P43220 24-463): as the sequence (P43220 24-463, change not shown) above

[3] = yeast, 20 h, percentage of the maximum response achieved through activation of GPA1/Gαs, mean ± SEM, n = 5, SEM
[4] = yeast, 20 h, three-parameter logistic fit, mean ± SEM, n = 5, SEM

Chain of GLP-1 receptor (GPA1/Gαs chimera) (P43220 24-463, change not shown): as above

Row | EC50 ([1]; pEC50 (GLP-1 receptor, GPA1/Gαs), non-peptide agonists, yeast, 20 h, three-parameter logistic fit, mean ± SEM, n = 5, SEM) | Emax ([1]; read-out: Emax (GLP-1 receptor, non-peptide agonists), yeast, 20 h, percentage of the maximum response achieved through activation of GPA1/Gαs, mean ± SEM, n = 5, SEM) | EC50 ([1]; value quoted in running text, read-out: EC50 (yeast, GPA1/Gαs)) | EC50 ([2]; pEC50 (GLP-1 receptor, GPA1/Gαi), non-peptide agonists, yeast, 20 h, three-parameter logistic fit, mean ± SEM, n = 5, SEM) | Emax ([2]; read-out: Emax (GLP-1 receptor, GPA1/Gαi), non-peptide agonists, yeast, 20 h, percentage of the maximum response achieved through activation of GPA1/Gαs, mean ± SEM, n = 5, SEM) | EC50 ([2]; value quoted in running text, read-out: EC50 (yeast, GPA1/Gαi)) | Emax (GLP-1 receptor, GPA1/Gαs), non-peptide agonists [1, 3] | pEC50 (GLP-1 receptor, GPA1/Gαs), non-peptide agonists [1, 4] | Emax (GLP-1 receptor, GPA1/Gαi), non-peptide agonists [2, 3] | pEC50 (GLP-1 receptor, GPA1/Gαi), non-peptide agonists [2, 4] | Structure (SMILES) | Equimolar bias plot, GPA1/Gαs versus GPA1/Gαi (GLP-1 receptor)
1 | 7.94 nM | 100 ± 5.1% | 10 nM | 15.8 nM | 96.5 ± 4.3% | 15 nM |  |  |  |  | CC[S+]([O-])c1nc(-c2cccc(OCc3ccccc3)c2)cc(C(F)(F)F)n1 (centres unmarked) [BETP, 4-(3-benzyloxyphenyl)-2-ethylsulfinyl-6-(trifluoromethyl) pyrimidine] | did not deviate from the no-bias line of unity
2 |  |  |  |  |  |  | 100 ± 7.3% | 8.6 ± 0.2 | 67.5 ± 7.3 % | 8.5 ± 0.3 | CC(C)(C)Nc1nc2cc(Cl)c(Cl)cc2nc1S(C)(=O)=O [Compound 2, 6,7-dichloro-2-methylsulfonyl-3-N-tert-butylaminoquinoxaline] | 
